{
  "source": "patent US12002595B2",
  "about": "“Separation of metal ions by liquid-liquid extraction” (priority 2016, dated 2024)",
  "key": {"[1]": {"experiment": "Extraction by TODGA from HNO3 in the absence or presence of 1 mM 343HOPO", "procedure": "Aqueous phase: 0 or 1 mM 343HOPO in HNO3. Organic phase: 0.1 M TODGA in kerosene. T=25° C. O/A=1, one contact. Points with arrows are lower limits.\nAqueous phase: 1 mM 343HOPO in 3 M HNO3. Organic phase: TODGA in kerosene. O/A=1. One contact. T=25° C.\nFor Example 20—Example 24, pH measurements were performed with a glass electrode (Metrohm-Micro Combi-response to [H+]) calibrated at 25.0° C. using three NIST standards. Extraction samples were analyzed by liquid scintillation counting (LSC). The distribution coefficient, D(M), of a given metal, M, is defined in Eq. 1, where [M]organic and [M]aqueous are the respective total concentrations of M in the organic and aqueous layers, after extraction. Both concentrations are proportional to the volumetric activity (in Bq/L) determined by LSC. The separation factor, SFM1/M2, between two metals, M1 and M2, and extraction yield were calculated according to Eq. 2 and Eq. 3, respectively.\nIn a typical experiment, the solvent (extractant diluted in kerosene) was pre-conditioned by shaking one volume of solvent with three volumes of aqueous phase (typically HNO3) at room temperature for 1 h, thrice. For radioisotope extractions, at least 400 μL aqueous phase (typically containing HNO3, a chelator and a radioisotope) and solvent were placed in air-tight screw-capped plastic tubes, triply-contained, and shaken in a thermoshaker at 300 rpm, 25° C., for at least 30 min. Samples were then centrifuged for 5 min at 3000 rpm and phases separated before analysis. LSC analyses were performed on a Packard Tri-Carb B4430 instrument (Perkin Elmer) after mixing sample aliquots or sample dilution aliquots (10 to 200 μL) with 10 mL of scintillation cocktail (UltimaGold LLT). Samples were counted for at least 6 min and results were background subtracted. The analytical samples contained between 0 and 800,000 CPM. Mixtures of ^249Bk and ^249Cf were analyzed using α/β discrimination and energy windows were set to 0-50 keV for low-energy β particles of ^249Bk and 50-1000 keV for α particles of ^249Cf. ^243Am and ^225Ac samples were counted at secular equilibrium."}, "[2]": {"conditions": "Pb^2+; 25° C.; cited from earlier work"}, "[3]": {"experiment": "Aqueous solubility of the ligand", "type": "physicochemical", "conditions": "water; room temperature"}, "[4]": {"experiment": "Persistence of the metal complex versus acidity", "type": "binding", "conditions": "Ti^4+"}, "[5]": {"conditions": "Th^4+; 25° C.; cited from earlier work"}, "[6]": {"conditions": "UO2^2+; 25° C.; cited from earlier work"}, "[7]": {"experiment": "Stability constant (log βML) of ligand-metal complexes", "type": "binding", "excerpt": "Thus far, no stability constant has been published for the actinium (Ac^3+) complex of 3,4,3-LI(1,2-HOPO). Based on the ionic radius of Ac^3+ (1.22 Å; See, D. Lundberg, I. Persson, The size of actinoid(III) ions—structural analysis vs. common misinterpretations, Coord. Chem. Rev. 318 (2016) 131-134. doi:10.1016/j.ccr.2016.04.003) and stability constants determined for other actinide and lanthanide ions, the stability of the Ac^3+ complex is expected to be very low, with a log β[AcL]- value of about 12 (FIG. 22). Stability of constant of 3,4,3-LI(1,2-HOPO) complexes with trivalent ions as a function of the ionic radius of the metal is shown in FIG. 22. […] Ionic radius values taken from Lundberg et al. for nona-coordinated metal ions. The Ac^3+ data point is an estimate. See, Lundberg, I. Persson, The size of actinoid(III) ions—structural analysis vs. common misinterpretations, Coord. Chem. Rev. 318 (2016) 131-134. doi:10.1016/j.ccr.2016.04.003; D. Lundberg, I. Persson, L. Eriksson, P. D'Angelo, S. De Panfilis, Structural Study of the N,N′-Dimethylpropyleneurea Solvated Lanthanoid(III) Ions in Solution and Solid State with an Analysis of the Ionic Radii of Lanthanoid(III) Ions, Inorg. Chem. 49 (2010) 4420-4432. doi:10.1021/ic100034q."}, "[8]": {"experiment": "Ligand selectivity from stability constants", "type": "binding", "excerpt": "While this class of ligands, encompassing HOPO and catecholamide (CAM) derivatives, has been known for decades, it had never been studied in details for separation applications. In fact, a few exceptions aside, most of these chelators have only been studied with a single cation, such as Gd^3+, Th^4+, or Pu^4+, impairing broader evaluation of their metal-metal selectivity. The chemistry of some HOPO ligands was recently extended across the periodic table, highlighting their outstanding selectivity, and large superiority over polyaminocarboxylate chelators (IDA, EDTA, DTPA, etc.), typically encountered in separations (FIGS. 46A-46F). Stability constants (log βML) were calculated as described in Sturzbecher-Hoehne, M., Kullgren, B., Jarvis, E. E., An, D. D. & Abergel, R. J. Highly Luminescent and Stable Hydroxypyridinonate Complexes: A Step Towards New Curium Decontamination Strategies. Chem. Eur. J. 20, 9962-9968 (2014); Sturzbecher-Hoehne, M., Yang, P., D'Aldo, A. & Abergel, R. J. Intramolecular sensitization of americium luminescence in solution: shining light on short-lived forbidden 5f transitions. Dalton Trans. 45, 9912-9919 (2016); Deblonde, G. J.-P., Lohrey, T. D., An, D. D. & Abergel, R. J. Toxic heavy metal—Pb, Cd, Sn—complexation by the octadentate hydroxypyridinonate ligand archetype 3,4,3-LI(1,2-HOPO). New J. Chem. 42, 7649-7658 (2018). […]"}},
  "note": "Like-named read-outs stand apart in the source and are kept apart here.",
  "data": [
    {"molecule": "O=C(NCCCN(CCCCN(CCCNC(=O)c1cccc(=O)n1O)C(=O)c1cccc(=O)n1O)C(=O)c1cccc(=O)n1O)c1cccc(=O)n1O", "note": "[3,4,3-LI(1,2-HOPO)]", "values": [
      {"measurement": "SF, isolation of Bk from adjacent actinides and fission products", "setting": "[1]; one-step separation method, summary statement", "result": "> 3×10^6"},
      {"measurement": "SFCf/Bk", "setting": "[1]; regardless of the TODGA and HNO3 concentrations", "result": "> 1,000,000"},
      {"measurement": "Bk extracted", "setting": "[1]; throughout the acidity range, 1 mM 343HOPO, 0.1 M TODGA", "result": "less than 1%"},
      {"measurement": "log βML", "setting": "[2]", "result": "18.0 ± 0.2"},
      {"measurement": "solubility", "setting": "[3]", "result": 1000, "unit": "mM"},
      {"measurement": "acidity range over which the ligand stays bound", "setting": "[4]", "result": "from pH 6 to 10 M HCl (at least)"},
      {"measurement": "log βML", "setting": "[5]", "result": "40.1 ± 0.5"},
      {"measurement": "log βML", "setting": "[6]", "result": "18.0 ± 0.4"},
      {"measurement": "log β[AcL]-", "setting": "[7]; Ac^3+ complex, expected from ionic radius (1.22 Å) and constants of other ions", "result": "about 12"},
      {"measurement": "log βML", "setting": "[7]; Ac^3+, estimate based on ionic radius", "result": "10-14"},
      {"measurement": "Ce^4+/Ce^3+ selectivity above what could be expected from a carboxylate ligand", "setting": "[8]", "result": "about 15 orders of magnitude"}
    ]}
  ]
}
